The values that follow are results of earlier work, collected in patent US11471445B2, “Compositions for the prevention and treatment of acute renal injury” (AKI Therapeutics ApS, priority 2017, dated 2022).

For series [1], the system named is cerebral ischemia-reperfusion injury. To be noted: mice.
The next series relates to rat heart. Particulars: pretreatment.
Another series relates to hepatic IRI. To be noted: rats, pretreatment.
For series [2] the following is noted: 30 min after intravenous injection.
A further series concerns IRI. Particulars: in vivo.

As for `COc1ccc(-c2cc(=O)c3c(O)cc(O[C@@H]4O[C@H](CO[C@@H]5O[C@@H](C)[C@H](O)[C@@H](O)[C@H]5O)[C@@H](O)[C@H](O)[C@H]4O)cc3o2)cc1O` [diosmin], the “effect on cerebral ischemia-reperfusion injury” value in series [1] is on record as “ameliorates the consequences of IRI”. Further, the “consequences of IRI in ex vivo rat heart” value in the series with rat heart is given as “ameliorates the consequences of IRI”. Further, the “consequences of hepatic IRI” value in the series with hepatic IRI is recorded as “ameliorates the consequences of IRI”.
Consider `CC(C)[C@]12O[C@H]1[C@@H]1O[C@]13[C@]1(O[C@H]1C[C@H]1C4=C(CC[C@@]13C)C(=O)OC4)[C@@H]2O` [Triptolide], for which the water solubility result was “very low water solubility”.
Turning to “triptolide-lysozyme conjugate: Triptolide conjugated to lysozyme by an ester linkage with a succinic acid spacer”, the “renal concentration of conjugate relative to equivalent dose of drug” value in series [2] was 20 fold.
Take β-escin: in the series on IRI, the “effect on IRI / ischemia” value is “ameliorates the effects of focal cerebral ischemia”.
As for `COc1ccc([C@@H]2CC(=O)c3c(O)cc(O[C@@H]4O[C@H](CO[C@@H]5O[C@@H](C)[C@H](O)[C@@H](O)[C@H]5O)[C@@H](O)[C@H](O)[C@H]4O)cc3O2)cc1O` [Hesperidin, hesperidin], in the series with IRI, the “effect on IRI / ischemia” value is recorded as “protective effects on IRI in various organs”.
